According to patent US20230287510A1, “COMPOSITIONS, PANELS, AND METHODS FOR CHARACTERIZING CHRONIC LYMPHOCYTIC LEUKEMIA” (The Broad Institute, Inc., priority 2020, published 2023):

Tested on: chronic lymphocytic leukemia (CLL) samples classified by expression subtype (Ec-i, EC-m1, EC-m2, EC-m3, EC-m4, EC-o, EC-u1, EC-u2)
Experiment: Ex-vivo drug sensitivity (percent viability) of CLL samples compared between expression subtypes (ECs); on Mean viability in the EC: test concentration or dose not given here; on Mean viability in the other ECs: test concentration or dose not given here
Format: cell-based
Excerpt: An analysis was completed to determine whether the expression clusters (ECs) can be used to predict the resistance and sensitivity of different chronic lymphocytic leukemias to various drugs. […] The expression subtypes were then used with the drug sensitivity data to compare the percent […] of samples in each expression cluster to the percent viability of samples in all other expression clusters.

Molecule	Mean viability in the other ECs (all ECs other than EC-i)	Mean viability in the other ECs (all ECs other than EC-m3)	Mean viability in the other ECs (all ECs other than EC-m4)	Mean viability in the other ECs (all ECs other than EC-u1)	Mean viability in the other ECs (all ECs other than EC-u2)	Drug response associated with the EC (expression cluster EC-i)	Mean viability in the EC (expression cluster EC-i)	Drug response associated with the EC (expression cluster EC-m3)	Mean viability in the EC (expression cluster EC-m3)	Drug response associated with the EC (expression cluster EC-m4)	Mean viability in the EC (expression cluster EC-m4)	Drug response associated with the EC (expression cluster EC-u1)	Mean viability in the EC (expression cluster EC-u1)	Drug response associated with the EC (expression cluster EC-u2)	Mean viability in the EC (expression cluster EC-u2)	Mean viability in the other ECs (all ECs other than EC-m1)	Drug response associated with the EC (expression cluster EC-m1)	Mean viability in the EC (expression cluster EC-m1)
Cn1cnc2c(F)c(Nc3ccc(Br)cc3Cl)c(C(=O)NOCCO)cc21 [selumetinib]	0.92	0.93	0.92	0.94	0.94	Resistant	0.97	Resistant	0.97	Resistant	0.97	Sensitive	0.91	Sensitive	0.79			
C=CC(=O)Nc1cccc(Nc2nc(Nc3ccc(OCCOC)cc3)ncc2F)c1 [spebrutinib]			0.95	0.98	0.96						1.01		0.92		0.88			
COc1cc(Nc2ncc(F)c(Nc3ccc4c(n3)NC(=O)C(C)(C)O4)n2)cc(OC)c1OC [tamatinib]	1.03	1.04	1.03	1.06		Resistant	1.07	Resistant	1.09	Resistant	1.09	Sensitive	1.00					
C/C=C(/C)C(=O)O[C@H]1C(C)=C2[C@H]([C@@H]1OC(=O)CCCCCCC)[C@@](C)(OC(C)=O)C[C@H](OC(=O)CCC)[C@@]1(O)[C@H]2OC(=O)[C@@]1(C)O [thapsigargin]						Sensitive								Resistant				
CC1(C)CCC(CN2CCN(c3ccc(C(=O)NS(=O)(=O)c4ccc(NCC5CCOCC5)c([N+](=O)[O-])c4)c(Oc4cnc5[nH]ccc5c4)c3)CC2)=C(c2ccc(Cl)cc2)C1 [venetoclax]				0.45								Resistant	0.54					
O=C(CCCCCCC(=O)Nc1ccccc1)NO [vorinostat]								Sensitive										
dasatinib		0.72	0.70	0.79	0.75			Resistant	0.87	Resistant	0.89	Sensitive	0.64	Sensitive	0.46	0.73	Resistant	0.90
fludarabine		0.93						Sensitive	0.82									
